Assay results reported in patent US20240335442A1 (Eurofarma Laboratórios S.A., priority 2021, published 2024).

Assays:
[1] = target: human sodium channel Nav 1.8 (Homo sapiens (Human), UniProt Q9Y5Y9); test: Automated whole-cell voltage-clamp (ScreenPatch 384P), Nav 1.8 sodium current, Protocol 2; assay type: cell-based; settings: read-out: Nav1.8 IC50
Procedure: (§1) Biological assays were performed on Chinese hamster ovary (CHO) cells expressing the human sodium channels Nav 1.8 and Nav 1.7 stably.
(§2) The experimental voltage-clamp protocol using the whole cell configuration was established on the automated ScreenPatch® 384P platform (SP384PE, Nanion Technologies, Livingston, NJ) and recording of the results was performed with a Nanion 384-well Patch Clamp chip (NPC) (Nanion Technologies, Livingston, NJ).
(§3) Compounds of Formula (I), were diluted in eight concentrations in the extracellular solution composed of physiological saline, buffered with HEPES (mM): NaCl, 137; KCl, 4; CaCl2, 3.8; MgCl2, 1; HEPES, 10; Glucose, 10; pH 7.4. The […], 50; CsF, 90; MgCl2, 5; EGTA, 5; HEPES, 10; pH 7.2. The duration of exposure of each compound with the cells expressing Nav 1.7 or Nav 1.8 was at least five minutes and the assays were performed at room temperature.
(§4) The measurements of the sodium currents of Nav 1.8 and Nav 1.7 were obtained using the voltage protocols described below: • Protocol 1: A holding voltage of-90 mV was established followed by a voltage phase of 200 ms to-120 mV, followed by a voltage step of 10 mV for 1 second for Nav 1.8 or 0 mV for Nav 1.7, followed by a step of-100 mV for 20 ms, followed by a step of 20 ms for 10 mV for Nav 1.8 or 0 mV for Nav 1.7 (TP1A) before returning to the holding voltage of-90 mV. • Protocol 2: A holding voltage of-100 mV was established followed by an inactivation voltage step at −40 mV for 8 seconds, followed by a −100 mV step for 20 ms, followed by a 20 ms step for 10 mV for Nav 1.8 or 0 mV for Nav 1.7 (TP1A) before returning to the holding voltage of-100 mV.
(§5) Protocols were repeated at a frequency of 0.1 Hz (Protocol 1) or 0.05 Hz (Protocol 2) and current amplitude was quantified over the TP1A phase log. The variation in the peak amplitude of the current was evaluated according to the Formula described below, after exposure of the cells expressing the channels, at each concentration of the different compounds:
(§6) where ITP1A,basal, and ITP1A,molecule represent the entry peaks of sodium currents into TP1A prior to exposure to the compound and in the presence of the compound, respectively.
(§7) The decrease in peak current amplitude, after exposure of the cells to the compounds, was used to calculate the percent relative blocking of the channels relative to the positive control according to the Formula below: […]
(§8) where % V and % CP represent the averages of the values of current inhibition with a vehicle (DMSO) and positive controls, respectively. The sodium currents of the positive control were considered as 100%.
(§9) where [Test] represents the concentration of the evaluated molecule, IC50 is the concentration of the compound that generates half of the maximum inhibition, N is the Hill's coefficient and % Block′ is the percentage of the sodium channel current (Nav 1.8 and Nav 1.7) inhibited at each concentration of the evaluated molecule. Data were obtained by non linear least squares regression with XL fit for Excel (Microsoft, Redmond, WA).
(§10) Compounds were tested in at least one assay to obtain the IC50 value.

[2] = target: human sodium channel Nav 1.7 (Homo sapiens (Human), UniProt Q15858); test: Automated whole-cell voltage-clamp (ScreenPatch 384P), Nav 1.7 sodium current, Protocol 2; assay type: cell-based; settings: read-out: Nav1.7 IC50
Procedure: as §1, §2, §3, §4, §5, §6, §7, §8, §9, §10

Chain of human sodium channel Nav 1.8 (Q9Y5Y9 whole entry): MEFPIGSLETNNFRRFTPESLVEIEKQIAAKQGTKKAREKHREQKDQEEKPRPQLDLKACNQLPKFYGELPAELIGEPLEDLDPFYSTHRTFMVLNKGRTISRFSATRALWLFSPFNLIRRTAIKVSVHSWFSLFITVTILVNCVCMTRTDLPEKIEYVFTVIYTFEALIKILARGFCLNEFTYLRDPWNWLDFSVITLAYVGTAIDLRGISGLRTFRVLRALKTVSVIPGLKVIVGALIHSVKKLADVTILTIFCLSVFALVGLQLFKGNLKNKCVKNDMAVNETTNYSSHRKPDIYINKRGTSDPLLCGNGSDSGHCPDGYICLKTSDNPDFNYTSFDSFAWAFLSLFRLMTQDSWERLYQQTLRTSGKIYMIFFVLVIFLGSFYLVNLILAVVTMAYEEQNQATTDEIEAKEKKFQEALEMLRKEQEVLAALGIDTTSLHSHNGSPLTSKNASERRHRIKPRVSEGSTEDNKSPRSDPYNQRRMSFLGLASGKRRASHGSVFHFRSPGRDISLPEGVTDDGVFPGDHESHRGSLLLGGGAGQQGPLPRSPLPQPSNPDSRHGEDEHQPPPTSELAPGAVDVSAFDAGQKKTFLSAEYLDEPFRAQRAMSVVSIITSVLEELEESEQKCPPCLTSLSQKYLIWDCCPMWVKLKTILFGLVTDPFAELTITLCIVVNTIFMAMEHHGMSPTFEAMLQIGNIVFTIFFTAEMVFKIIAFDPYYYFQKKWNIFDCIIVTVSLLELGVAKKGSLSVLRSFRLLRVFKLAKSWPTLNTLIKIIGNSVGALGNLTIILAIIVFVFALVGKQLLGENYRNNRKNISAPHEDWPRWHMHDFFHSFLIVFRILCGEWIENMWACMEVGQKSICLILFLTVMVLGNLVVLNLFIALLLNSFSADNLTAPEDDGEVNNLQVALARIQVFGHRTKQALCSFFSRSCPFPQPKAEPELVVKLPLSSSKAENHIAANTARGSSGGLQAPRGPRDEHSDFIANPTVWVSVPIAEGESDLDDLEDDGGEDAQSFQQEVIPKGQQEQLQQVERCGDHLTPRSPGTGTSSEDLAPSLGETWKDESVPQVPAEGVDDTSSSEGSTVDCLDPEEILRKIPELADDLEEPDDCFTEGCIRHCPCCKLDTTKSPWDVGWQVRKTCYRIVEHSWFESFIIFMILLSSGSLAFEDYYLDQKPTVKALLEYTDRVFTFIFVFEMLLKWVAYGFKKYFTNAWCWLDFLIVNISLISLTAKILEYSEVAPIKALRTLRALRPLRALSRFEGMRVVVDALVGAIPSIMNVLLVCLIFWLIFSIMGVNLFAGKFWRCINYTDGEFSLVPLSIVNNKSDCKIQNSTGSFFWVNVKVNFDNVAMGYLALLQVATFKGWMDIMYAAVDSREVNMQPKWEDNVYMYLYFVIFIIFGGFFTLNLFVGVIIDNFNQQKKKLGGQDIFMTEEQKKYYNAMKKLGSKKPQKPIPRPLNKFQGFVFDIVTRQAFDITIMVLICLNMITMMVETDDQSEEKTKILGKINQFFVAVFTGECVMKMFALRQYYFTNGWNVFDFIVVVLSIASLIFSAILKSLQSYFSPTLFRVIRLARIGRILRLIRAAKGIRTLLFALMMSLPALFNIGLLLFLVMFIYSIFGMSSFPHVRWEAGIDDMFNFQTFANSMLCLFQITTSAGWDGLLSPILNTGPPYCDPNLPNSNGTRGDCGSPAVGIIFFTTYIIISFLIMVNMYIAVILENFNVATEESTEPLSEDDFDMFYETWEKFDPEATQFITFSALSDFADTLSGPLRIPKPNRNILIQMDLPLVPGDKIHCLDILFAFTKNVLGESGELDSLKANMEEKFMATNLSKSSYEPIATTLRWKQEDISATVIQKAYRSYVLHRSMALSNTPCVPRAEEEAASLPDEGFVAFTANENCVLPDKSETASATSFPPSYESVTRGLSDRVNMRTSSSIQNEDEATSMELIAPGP
Chain of human sodium channel Nav 1.7 (Q15858 whole entry): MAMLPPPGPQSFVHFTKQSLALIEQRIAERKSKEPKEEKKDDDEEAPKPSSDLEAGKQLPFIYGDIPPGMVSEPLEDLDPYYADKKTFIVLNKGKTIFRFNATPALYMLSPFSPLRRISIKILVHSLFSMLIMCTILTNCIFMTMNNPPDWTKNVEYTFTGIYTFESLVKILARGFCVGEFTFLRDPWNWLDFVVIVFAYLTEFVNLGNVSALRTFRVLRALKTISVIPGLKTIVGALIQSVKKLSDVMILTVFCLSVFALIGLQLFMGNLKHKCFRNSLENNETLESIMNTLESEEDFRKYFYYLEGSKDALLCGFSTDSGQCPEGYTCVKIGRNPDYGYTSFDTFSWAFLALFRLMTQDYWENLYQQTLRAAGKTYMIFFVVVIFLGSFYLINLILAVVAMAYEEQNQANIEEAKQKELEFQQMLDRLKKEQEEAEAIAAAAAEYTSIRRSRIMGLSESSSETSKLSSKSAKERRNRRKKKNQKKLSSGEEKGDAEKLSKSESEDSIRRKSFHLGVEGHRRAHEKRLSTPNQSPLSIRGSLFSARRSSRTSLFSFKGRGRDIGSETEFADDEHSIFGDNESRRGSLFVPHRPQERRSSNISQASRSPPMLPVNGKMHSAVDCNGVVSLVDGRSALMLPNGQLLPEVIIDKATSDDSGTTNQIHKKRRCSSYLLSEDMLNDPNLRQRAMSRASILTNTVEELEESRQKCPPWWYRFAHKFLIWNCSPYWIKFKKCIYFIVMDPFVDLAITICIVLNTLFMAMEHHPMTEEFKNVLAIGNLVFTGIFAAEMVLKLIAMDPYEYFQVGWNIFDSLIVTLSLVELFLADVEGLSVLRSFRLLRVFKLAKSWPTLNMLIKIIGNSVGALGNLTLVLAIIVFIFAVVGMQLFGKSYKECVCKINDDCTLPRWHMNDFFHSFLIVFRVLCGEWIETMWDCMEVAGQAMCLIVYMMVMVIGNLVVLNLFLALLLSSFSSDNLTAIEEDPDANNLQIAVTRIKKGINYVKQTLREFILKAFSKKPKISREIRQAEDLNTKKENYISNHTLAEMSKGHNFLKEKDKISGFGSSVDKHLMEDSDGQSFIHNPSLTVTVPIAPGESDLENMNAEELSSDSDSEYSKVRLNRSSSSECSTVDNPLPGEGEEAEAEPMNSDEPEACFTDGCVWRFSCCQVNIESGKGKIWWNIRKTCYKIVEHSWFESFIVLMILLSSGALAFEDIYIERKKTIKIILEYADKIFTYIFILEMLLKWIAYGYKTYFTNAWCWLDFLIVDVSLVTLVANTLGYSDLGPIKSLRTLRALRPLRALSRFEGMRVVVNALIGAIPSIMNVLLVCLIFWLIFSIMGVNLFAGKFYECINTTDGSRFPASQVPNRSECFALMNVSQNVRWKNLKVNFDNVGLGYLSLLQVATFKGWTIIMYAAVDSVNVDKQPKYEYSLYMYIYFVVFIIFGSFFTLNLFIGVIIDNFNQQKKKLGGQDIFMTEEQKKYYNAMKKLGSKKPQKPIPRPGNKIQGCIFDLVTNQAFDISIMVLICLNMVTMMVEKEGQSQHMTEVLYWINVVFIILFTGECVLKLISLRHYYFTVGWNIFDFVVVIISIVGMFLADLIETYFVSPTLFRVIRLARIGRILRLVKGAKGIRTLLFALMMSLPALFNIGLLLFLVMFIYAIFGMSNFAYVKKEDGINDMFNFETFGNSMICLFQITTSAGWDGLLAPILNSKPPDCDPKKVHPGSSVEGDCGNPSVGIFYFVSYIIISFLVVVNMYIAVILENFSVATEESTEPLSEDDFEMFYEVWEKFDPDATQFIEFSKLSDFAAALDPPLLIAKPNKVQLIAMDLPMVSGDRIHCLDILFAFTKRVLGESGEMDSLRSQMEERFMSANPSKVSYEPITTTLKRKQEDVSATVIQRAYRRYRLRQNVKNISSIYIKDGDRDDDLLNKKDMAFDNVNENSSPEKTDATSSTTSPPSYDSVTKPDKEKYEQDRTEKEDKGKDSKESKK

Compound: COc1cc(/C=N/NC(=O)c2cncc(-c3ccc(OC4CC4)cc3)n2)cc(OC)c1 [Compound 88, (E)-6-(4-cyclopropoxyphenyl)-N′-(3,5-dimethoxybenzylidene)pyrazine-2-carbohydrazide]
- IC50 [1]: 42.6 nM
- IC50 [2]: 70.4 nM

Compound: COc1cc(/C=N/NC(=O)c2cncc(-c3ccc(OC4CCCCC4)cc3)n2)cc(OC)c1 [Compound 89, (E)-6-(4-(cyclohexyloxy)phenyl)-N′-(3,5-dimethoxybenzylidene)pyrazine-2-carbohydrazide]
- IC50 [1]: 149 nM
- IC50 [2]: 212 nM

Compound: COc1ccc(-c2nccnc2C(=O)N/N=C/c2cc(OC)cc(OC)c2)cc1 [Compound 90, (E)-N′-(3,5-dimethoxybenzylidene)-3-(4-methoxyphenyl)pyrazine-2-carbohydrazide]
- IC50 [1]: > 1000 nM
- IC50 [2]: > 10000 nM

Compound: COc1ccc(-c2cnc(C(=O)N/N=C/c3cc(OC)cc(OC)c3)cn2)cc1 [Compound 91, (E)-N′-(3,5-dimethoxybenzylidene)-5-(4-methoxyphenyl)pyrazine-2-carbohydrazide]
- IC50 [1]: > 1000 nM
- IC50 [2]: > 10000 nM

Compound: COc1cc(/C=N/NC(=O)c2cncc(-c3ccc(F)cc3)n2)cc(OC)c1 [Compound 92, (E)-N′-(3,5-dimethoxybenzylidene)-6-(4-fluorophenyl)pyrazine-2-carbohydrazide]
- IC50 [1]: > 1000 nM
- IC50 [2]: > 10000 nM

Compound: COc1cc(/C=N/NC(=O)c2cncc(-c3cccc(Cl)c3)n2)cc(OC)c1 [Compound 93, (E)-6-(3-chlorophenyl)-N′-(3,5-dimethoxybenzylidene)pyrazine-2-carbohydrazide]
- IC50 [1]: > 1000 nM
- IC50 [2]: > 10000 nM

Compound: COc1cc(/C=N/NC(=O)c2cncc(-c3cccc(F)c3)n2)cc(OC)c1 [Compound 94, (E)-N′-(3,5-dimethoxybenzylidene)-6-(3-fluorophenyl)pyrazine-2-carbohydrazide]
- IC50 [1]: > 1000 nM
- IC50 [2]: > 10000 nM

Compound: COc1cc(/C=N/NC(=O)c2cncc(-c3ccccc3Cl)n2)cc(OC)c1 [Compound 95, (E)-6-(2-chlorophenyl)-N′-(3,5-dimethoxybenzylidene)pyrazine-2-carbohydrazide]
- IC50 [1]: > 1000 nM
- IC50 [2]: > 10000 nM

Compound: COc1cc(/C=N/NC(=O)c2cncc(-c3ccc(C)cc3)n2)cc(OC)c1 [Compound 96, (E)-N′-(3,5-dimethoxybenzylidene)-6-(p-tolyl)pyrazine-2-carbohydrazide]
- IC50 [1]: 887 nM
- IC50 [2]: > 10000 nM

Compound: COc1cc(/C=N/NC(=O)c2cncc(-c3ccccc3)n2)cc(OC)c1 [Compound 97, (E)-N′-(3,5-dimethoxybenzylidene)-6-phenylpyrazine-2-carbohydrazide]
- IC50 [1]: 394 nM
- IC50 [2]: > 10000 nM

Compound: COc1cc(/C=N/NC(=O)c2cncc(-c3ccccc3F)n2)cc(OC)c1 [Compound 98, (E)-N′-(3,5-dimethoxybenzylidene)-6-(2-fluorophenyl)pyrazine-2-carbohydrazide]
- IC50 [1]: > 1000 nM
- IC50 [2]: > 10000 nM

Compound: COc1cc(/C=N/NC(=O)c2cncc(-c3ccccc3OC)n2)cc(OC)c1 [Compound 102, (E)-N′-(3,5-dimethoxybenzylidene)-6-(2-methoxyphenyl)pyrazine-2-carbohydrazide]
- IC50 [1]: 459 nM
- IC50 [2]: > 10000 nM

Compound: COc1cc(/C=N/NC(=O)c2cncc(-c3ccncc3)n2)cc(OC)c1 [Compound 103, (E)-N′-(3,5-dimethoxybenzylidene)-6-(pyridin-4-yl)pyrazine-2-carbohydrazide]
- IC50 [1]: > 1000 nM
- IC50 [2]: > 10000 nM

Compound: COc1cc(/C=N/NC(=O)c2cncc(-c3cccnc3)n2)cc(OC)c1 [Compound 104, (E)-N′-(3,5-dimethoxybenzylidene)-6-(pyridin-3-yl)pyrazine-2-carbohydrazide]
- IC50 [1]: > 1000 nM
- IC50 [2]: > 10000 nM

Compound: CCOc1ccc(-c2cncc(C(=O)N/N=C/c3cc(F)cc(OC)c3)n2)c(OC)c1 [Compound 105, (E)-6-(4-ethoxy-2-methoxypehnyl)-N′-(3-fluoro-5-methoxybenzylidene)pyrazine-2-carbohydrazide]
- IC50 [1]: 33.7 nM
- IC50 [2]: 44.6 nM

Compound: CCCOc1cc(/C=N/NC(=O)c2cncc(-c3ccc(OCC)cc3OC)n2)cc(OC)c1 [Compound 106, (E)-6-(4-ethoxy-2-methoxyphenyl)-N′-(3-methoxy-5-propoxybenzylidene)pyrazine-2-carbohydrazide]
- IC50 [1]: 90.2 nM
- IC50 [2]: 83 nM

Compound: CCOc1ccc(-c2cncc(C(=O)N/N=C/c3cc(OC)c(F)c(OC)c3)n2)c(OC)c1 [Compound 107, (E)-6-(4-ethoxy-2-methoxyphenyl)-N′-(4-fluoro-3,5-dimethoxybenzylidene)pyrazine-2-carbohydrazide]
- IC50 [1]: 1000 nM
- IC50 [2]: 5160 nM

Compound: CCOc1ccc(-c2cncc(C(=O)N/N=C/c3cccc(OC)c3)n2)c(OC)c1 [Compound 108, (E)-6-(4-ethoxy-2-methoxyphenyl)-N′-(3-methoxybenzylidene)pyrazine-2-carbohydrazide]
- IC50 [1]: 17.7 nM
- IC50 [2]: 30.8 nM

Compound: COc1cc(/C=N/NC(=O)c2cncc(-c3ccc(OC)cc3C)n2)cc(OC)c1 [Compound 109, (E)-N′-(3,5-dimethoxybenzylidene)-6-(4-methoxy-2-methylphenyl)pyrazine-2-carbohydrazide]
- IC50 [1]: 149 nM
- IC50 [2]: 566 nM

Compound: CCOc1ccc(-c2cncc(C(=O)N/N=C/c3cccc(OC)c3)n2)c(Cl)c1 [Compound 111, (E)-6-(2-chloro-4-ethoxyphenyl)-N′-(3-methoxybenzylidene)pyrazine-2-carbohydrazide]
- IC50 [1]: 119 nM
- IC50 [2]: 541 nM

Compound: COc1cc(/C=N/NC(=O)c2cncc(-c3ccc(OC)cc3OC(F)(F)F)n2)cc(OC)c1 [Compound 112]
- IC50 [1]: 966 nM
- IC50 [2]: 2350 nM

Compound: CCCc1ccc(-c2cncc(C(=O)N/N=C/c3cc(OC)cc(OC)c3)n2)cc1 [Compound 113, (E)-N′-(3,5-dimethoxybenzylidene)-6-(4-propylphenyl)pyrazine-2-carbohydrazide]
- IC50 [1]: 433 nM
- IC50 [2]: 1000 nM

Compound: COc1cc(/C=N/NC(=O)c2cncc(-c3ccccc3N3CCOCC3)n2)cc(OC)c1 [Compound 114]
- IC50 [1]: > 1000 nM
- IC50 [2]: > 10000 nM

Compound: COc1cc(/C=N/NC(=O)c2cncc(-c3ccc(CC(C)C)cc3)n2)cc(OC)c1 [Compound 116, (E)-N′-(3,5-dimethoxybenzylidene)-6-(4-isobutylphenyl)pyrazine-2-carbohydrazide]
- IC50 [1]: 332 nM
- IC50 [2]: 666 nM

Compound: CCOc1ccc(-c2cncc(C(=O)N/N=C/c3cc(OC)cc(OC)c3)n2)cc1Cl [Compound 117, (E)-6-(3-chloro-4-ethoxyphenyl)-N′-(3,5-dimethoxybenzylidene)pyrazine-2-carbohydrazide]
- IC50 [1]: 238 nM
- IC50 [2]: 737 nM

Compound: CCSc1ccc(-c2cncc(C(=O)N/N=C/c3cc(OC)cc(OC)c3)n2)cc1 [Compound 118, (E)-N′-(3,5-dimethoxybenzylidene)-6-(4-(ethylthio)phenyl)pyrazine-2-carbohydrazide]
- IC50 [1]: 79.9 nM
- IC50 [2]: 416 nM

Compound: CCOc1ccc(-c2cncc(C(=O)N/N=C/c3cccc(OC)c3)n2)c(F)c1 [Compound 119, (E)-6-(4-ethoxy-2-fluorophenyl)-N′-(3-methoxybenzylidene)pyrazine-2-carbohydrazide]
- IC50 [1]: 128 nM
- IC50 [2]: > 10000 nM

Compound: CCOc1ccc(-c2cncc(C(=O)N/N=C/c3cccc(OC)c3)n2)c(C(F)(F)F)c1 [Compound 120, (E)-6-(4-ethoxy-2-(trifluoromethyl)phenyl)-N′-(3-methoxybenzylidene)pyrazine-2-carbohydrazide]
- IC50 [1]: 133 nM
- IC50 [2]: 116 nM

Compound: COc1cc(/C=N/NC(=O)c2cncc(-c3ccc(OC)cc3F)n2)cc(OC)c1 [Compound 121, (E)-N′-(3,5-dimethoxybenzylidene)-6-(2-fluoro-4-methoxyphenyl)pyrazine-2-carbohydrazide]
- IC50 [1]: 117 nM
- IC50 [2]: 499 nM

Compound: COc1cc(/C=N/NC(=O)c2cncc(-c3ccc(OC)cc3Cl)n2)cc(OC)c1 [Compound 122]
- IC50 [1]: > 1000 nM
- IC50 [2]: 5120 nM
